Measurements published in ChEMBL document CHEMBL4819025, “Natural Piperine Improves Lipid Metabolic Profile of High-Fat Diet-Fed Mice by Upregulating SR-B1 and ABCG8 Transporters” (J Nat Prod, 2021).
The source made the active and inactive calls. The calls are words filed in the database; no cut-off is given here.

Legend:
HepG2 [1] = assay: Hypolipidemic activity in human HepG2 cells assessed as reduction in FFA-induced intracellular fat deposition at 10 uM after 24 hrs by Oil Red O staining based assay; assay type: functional, cell-based
Mus musculus [2] = assay: Effect on ABCG1 mRNA expression level in high-fat diet fed mouse liver at 25 mg/kg/day by qRT-PCR analysis; assay type: functional, organism-based
Mus musculus [3] = assay: Hypolipidemic activity in normal diet fed ICR mouse assessed as reduction in TC level in liver at 25 mg/kg, ig administered once daily for 8 weeks by H and E staining based microscopic analysis; assay type: functional, organism-based
[4] = Toxicity in high fat diet-induced ICR mouse model of hyperlipidemia assessed as change in liver weight at 25 mg/kg, ig administered once daily for 8 weeks by H and E staining based microscopic analysis; assay type: organism-based; settings: in vivo, po, 1344 h
HepG2 [5] = assay: Cytotoxicity against human HepG2 cells assessed as reduction in cell viability at 1 to 100 uM after 24 hrs by CCK8 assay; assay type: cell-based; settings: hepg2, 24 h, dose 1-100 µM
Mus musculus [6] = assay: Hypolipidemic activity in normal diet fed ICR mouse assessed as alteration in plasma TG level at 25 mg/kg, ig administered once daily for 8 weeks; assay type: functional, organism-based
[7] = Toxicity in high fat diet-induced ICR mouse model of hyperlipidemia assessed as change in kidney weight at 25 mg/kg, ig administered once daily for 8 weeks by H and E staining based microscopic analysis; assay type: organism-based; settings: in vivo, po, 1344 h
Mus musculus [8] = assay: Effect on ABCA1 protein expression level in high-fat diet fed mouse liver at 25 mg/kg/day by Western blotting analysis; assay type: functional, organism-based
Mus musculus [9] = assay: Hypolipidemic activity in normal diet fed ICR mouse assessed as alteration in plasma HDL-C level at 25 mg/kg, ig administered once daily for 8 weeks; assay type: functional, organism-based
Mus musculus [10] = assay: Effect on ABCG5 protein expression level in high-fat diet fed mouse small intestine at 25 mg/kg, po by Western blotting analysis; assay type: functional, organism-based
Mus musculus [11] = assay: Upregulation of ABCG8 mRNA expression in high-fat diet fed mouse liver at 25 mg/kg/day by qRT-PCR analysis; assay type: functional, organism-based
Mus musculus [12] = assay: Hypolipidemic activity in normal diet fed ICR mouse assessed as alteration in plasma TC level at 25 mg/kg, ig administered once daily for 8 weeks; assay type: functional, organism-based
Mus musculus [13] = assay: Effect on SR-B1 mRNA expression level in high-fat diet fed mouse liver at 25 mg/kg/day by qRT-PCR analysis; assay type: functional, organism-based
Mus musculus [14] = assay: Hypolipidemic activity in high fat diet-induced ICR mouse hyperlipidemic model assessed as reduction in TG level in liver at 25 mg/kg, ig administered once daily for 8 weeks by H and E staining based microscopic analysis; assay type: functional, organism-based
[15] = Toxicity in high fat diet-induced mouse model of hyperlipidemia assessed as change in food intake at 25 mg/kg, ig administered once daily for 8 weeks; assay type: organism-based; settings: in vivo, po, 1344 h
[16] = Toxicity in high fat diet-induced mouse model of hyperlipidemia assessed as change in body weight at 25 mg/kg, ig administered once daily for 8 weeks; assay type: organism-based; settings: in vivo, po, 1344 h
Mus musculus [17] = assay: Hypolipidemic activity in high fat diet-induced ICR mouse hyperlipidemic model assessed as reduction in plasma TC level at 25 mg/kg, ig administered once daily for 8 weeks; assay type: functional; set-up: scale not given: the % may be the effect or the level left
Mus musculus [18] = assay: Hypolipidemic activity in high fat diet-induced ICR mouse hyperlipidemic model assessed as reduction in plasma LDL-C level at 25 mg/kg, ig administered once daily for 8 weeks; assay type: functional; set-up: scale not given: the % may be the effect or the level left
Mus musculus [19] = assay: Effect on SR-B1 mRNA expression level in high-fat diet fed mouse small intestine at 25 mg/kg, po by qRT-PCR analysis; assay type: functional, organism-based
HepG2 [20] = assay: Hypolipidemic activity in human HepG2 cells assessed as reduction in FFA-induced lipid accumulation incubated for 24 hrs by Oil Red O staining based assay; assay type: functional, cell-based; settings: dose 10-100 µM
Mus musculus [21] = assay: Hypolipidemic activity in normal diet fed ICR mouse assessed as reduction in TG level in liver at 25 mg/kg, ig administered once daily for 8 weeks by H and E staining based microscopic analysis; assay type: functional, organism-based
Mus musculus [22] = assay: Effect on ABCA1 mRNA expression level in high-fat diet fed mouse small intestine at 25 mg/kg, po by qRT-PCR analysis; assay type: functional, organism-based
Mus musculus [23] = assay: Effect on SR-B1 protein expression level in high-fat diet fed mouse small intestine at 25 mg/kg, po by Western blotting analysis; assay type: functional, organism-based
[24] = Toxicity in high fat diet-induced ICR mouse model of hyperlipidemia assessed as change in spleen weight at 25 mg/kg, ig administered once daily for 8 weeks by H and E staining based microscopic analysis; assay type: organism-based; settings: in vivo, po, 1344 h
Mus musculus [25] = assay: Effect on ABCG1 protein expression level in high-fat diet fed mouse liver at 25 mg/kg/day by Western blotting analysis; assay type: functional, organism-based
Mus musculus [26] = assay: Effect on NPC1L1 protein expression level in high-fat diet fed mouse small intestine at 25 mg/kg, po by Western blotting analysis; assay type: functional, organism-based
Mus musculus [27] = assay: Effect on ABCA1 protein expression level in high-fat diet fed mouse small intestine at 25 mg/kg, po by Western blotting analysis; assay type: functional, organism-based
[28] = Toxicity in high fat diet-induced ICR mouse model of hyperlipidemia assessed as change in hepatic morphology at 25 mg/kg, ig administered once daily for 8 weeks by H and E staining based microscopic analysis; assay type: organism-based; settings: in vivo, po, 1344 h
Mus musculus [29] = assay: Hypolipidemic activity in high fat diet-induced ICR mouse hyperlipidemic model assessed as reduction in fat accumulation in liver at 25 mg/kg, ig administered once daily for 8 weeks by H and E staining based microscopic analysis; assay type: functional, organism-based
Mus musculus [30] = assay: Effect on ABCG5 mRNA expression level in high-fat diet fed mouse liver at 25 mg/kg/day by qRT-PCR analysis; assay type: functional, organism-based
[31] = Toxicity in high fat diet-induced ICR mouse model of hyperlipidemia assessed as change in stomach weight at 25 mg/kg, ig administered once daily for 8 weeks by H and E staining based microscopic analysis; assay type: organism-based; settings: in vivo, po, 1344 h
[32] = Upregulation of ABCG8 protein expression in high-fat diet fed mouse small intestine at 25 mg/kg, po by Western blotting analysis; assay type: functional
Mus musculus [33] = assay: Hypolipidemic activity in normal diet fed ICR mouse assessed as alteration in plasma LDL-C level at 25 mg/kg, ig administered once daily for 8 weeks; assay type: functional, organism-based
Mus musculus [34] = assay: Hypolipidemic activity in high fat diet-induced ICR mouse hyperlipidemic model assessed as reduction in TC level in liver at 25 mg/kg, ig administered once daily for 8 weeks by H and E staining based microscopic analysis; assay type: functional, organism-based
Mus musculus [35] = assay: Effect on NPC1L1 protein expression level in high-fat diet fed mouse liver at 25 mg/kg/day by Western blotting analysis; assay type: functional, organism-based
Mus musculus [36] = assay: Hypolipidemic activity in high fat diet-induced ICR mouse hyperlipidemic model assessed as reduction in plasma TG level at 25 mg/kg, ig administered once daily for 8 weeks; assay type: functional; set-up: scale not given: the % may be the effect or the level left
Mus musculus [37] = assay: Upregulation of SR-B1 protein expression level in high-fat diet fed mouse liver at 25 mg/kg/day by Western blotting analysis; assay type: functional, organism-based
Mus musculus [38] = assay: Hypolipidemic activity in high fat diet-induced ICR mouse hyperlipidemic model assessed as increase in plasma HDL-C level at 25 mg/kg, ig administered once daily for 8 weeks; assay type: functional, organism-based
HepG2 [39] = assay: Hypolipidemic activity in human HepG2 cells assessed as reduction in FFA-induced TG accumulation after 24 hrs; assay type: functional, cell-based; settings: dose 10-100 µM
Mus musculus [40] = assay: Effect on ABCA1 mRNA expression level in high-fat diet fed mouse liver at 25 mg/kg/day by qRT-PCR analysis; assay type: functional, organism-based
Mus musculus [41] = assay: Effect on ABCG5 protein expression level in high-fat diet fed mouse liver at 25 mg/kg/day by Western blotting analysis; assay type: functional, organism-based
Mus musculus [42] = assay: Effect on NPC1 mRNA expression level in high-fat diet fed mouse liver at 25 mg/kg/day by qRT-PCR analysis; assay type: functional, organism-based
[43] = Upregulation of […] expression in high-fat diet fed mouse small intestine assessed as fold increase at 25 mg/kg, po by qRT-PCR analysis; assay type: functional
HepG2 [44] = assay: Hypolipidemic activity in human HepG2 cells assessed as reduction in FFA-induced intracellular fat deposition at 50 to 100 uM after 24 hrs by Oil Red O staining based assay; assay type: functional; set-up: scale not given: the % may be the effect or the level left; settings: dose 50-100 µM
Mus musculus [45] = assay: Effect on ABCG5 mRNA expression level in high-fat diet fed mouse small intestine at 25 mg/kg, po by qRT-PCR analysis; assay type: functional, organism-based
[46] = Toxicity in high fat diet-induced ICR mouse model of hyperlipidemia assessed as change in lung weight at 25 mg/kg, ig administered once daily for 8 weeks by H and E staining based microscopic analysis; assay type: organism-based; settings: in vivo, po, 1344 h
[47] = Toxicity in high fat diet-induced ICR mouse model of hyperlipidemia assessed as change in heart weight at 25 mg/kg, ig administered once daily for 8 weeks by H and E staining based microscopic analysis; assay type: organism-based; settings: in vivo, po, 1344 h
Mus musculus [48] = assay: Effect on ABCG8 protein expression level in high-fat diet fed mouse liver at 25 mg/kg/day by Western blotting analysis; assay type: functional, organism-based
Mus musculus [49] = assay: Effect on NPC1 mRNA expression level in high-fat diet fed mouse small intestine at 25 mg/kg, po by qRT-PCR analysis; assay type: functional, organism-based

CC(C)c1c(C(=O)Nc2ccccc2)c(-c2ccccc2)c(-c2ccc(F)cc2)n1CC[C@@H](O)C[C@@H](O)CC(=O)O
Activity (HepG2 [1]): Active

O=C(/C=C/C=C/c1ccc2c(c1)OCO2)N1CCCCC1 [PIPERINE]
Activity (Mus musculus [2]): inactive
Activity (Mus musculus [3]): inactive
Activity [4]: Non-Toxic
Activity (HepG2 [5]): Non-Toxic
Activity (Mus musculus [6]): inactive
Activity [7]: Non-Toxic
Activity (Mus musculus [8]): inactive
Activity (Mus musculus [9]): inactive
Activity (Mus musculus [10]): inactive
Activity (Mus musculus [11]): Active
Activity (Mus musculus [12]): inactive
Activity (Mus musculus [13]): inactive
Activity (Mus musculus [14]): Active
Activity [15]: Non-Toxic
Activity [16]: Non-Toxic
Activity (Mus musculus [17]): 27.5%
Activity (Mus musculus [18]): 34.4%
Activity (Mus musculus [19]): inactive
Activity (HepG2 [20]): Dose-Dependent Effect
Activity (Mus musculus [21]): inactive
Activity (Mus musculus [22]): inactive
Activity (Mus musculus [23]): inactive
Activity [24]: Non-Toxic
Activity (Mus musculus [25]): inactive
Activity (Mus musculus [26]): inactive
Activity (Mus musculus [27]): inactive
Activity [28]: Non-Toxic
Activity (Mus musculus [29]): Active
Activity (Mus musculus [30]): inactive
Activity [31]: Non-Toxic
Activity [32]: 80%
Activity (Mus musculus [33]): inactive
Activity (Mus musculus [34]): Active
Activity (Mus musculus [35]): inactive
Activity (Mus musculus [36]): 43.6%
Activity (Mus musculus [37]): Active
Activity (Mus musculus [38]): Active
Activity (HepG2 [39]): Dose-Dependent Effect
Activity (Mus musculus [40]): inactive
Activity (Mus musculus [41]): inactive
Activity (Mus musculus [42]): inactive
fold change (FC) [43]: 1.8
Activity (HepG2 [44]): 36%
Activity (Mus musculus [45]): inactive
Activity [46]: Non-Toxic
Activity [47]: Non-Toxic
Activity (Mus musculus [48]): inactive
Activity (Mus musculus [49]): inactive
